The text below walks through data of patent publication US20250002470A1, “NITROGEN-CONTAINING COMPOUND, PREPARATION METHOD THEREFOR AND APPLICATION THEREOF” (ZHEJIANG AIXPLORER BIOTECH CO., LTD., priority 2021, published 2025).

The structures appear in SMILES notation. Bounds are passed on as bounds.

One data set concerns the target hERG potassium channel (Homo sapiens, UniProt Q12809). In words: Whole-cell patch-clamp (QPatch) of hERG current in HEK293 cells stably expressing hERG. Type of data set: cell-based. As for the experimental part: In this study, a whole-cell patch-clamp technique was used to study the inhibitory effect of compounds on hERG potassium channels and to evaluate the risk of ventricular repolarization toxicity.
The HEK293 cell line stably expressing the hERG potassium channel cells was purchased from Creacell, Inc. (Cat. No. A-0320).
The HEK293 cell line that can stably express the hERG potassium channel, was cultured in DMEM medium containing 10% fetal bovine serum and 0.8 mg/mL G418 at 37° C. and 5% carbon dioxide.
Before the test, the cells were separated with TrypLET Express, centrifuged after adding medium to terminate digestion, resuspended the cell count, adjusted the cell density to 2-3×10^6 cells/mL, and then lightly mixed the cells on a room temperature equilibration shaker for 15-20 min.
Electrophysiological assays were performed using a fully automated patch-clamp QPatch 48 X (Sophion) device. The prepared cells were placed on a centrifuge on the Qpatch bench, the cells were washed using multiple centrifugation/suspension methods, and the cell culture medium was replaced with extracellular fluid. Remove an MTP-96 plate and place it in the location of the MTP source. Remove the QPlate chip and subsequently place the QPlate at the Qplate source location. The robotic arm scans the MTP-96 board and the QPlate chip barcode and grabs it to the measuring station. Draw the intracellular and external fluid from the liquid pool and add them to the intracellular fluid pool, cell and test cell pool of the QPlate chip, respectively. At the measuring station, all measuring sites on the QPlate undergo initial quality control. The quality control process includes aspirating the cell suspension from the cell vessel of the centrifuge and positioning the cells to the chip wells via a pressure controller to establish a high-resistance seal and create a whole-cell recording pattern.
The voltage stimulation protocol for whole-cell patch-clamp recording of whole-cell hERG potassium currents is as follows: the cell membrane voltage clamps at −80 mV when a whole-cell closure is formed. The clamping voltage is depolarized from −80 mV to −50 mV for 0.5 s (as a leakage current detection), then steps to 30 mV for 2.5 s, and then quickly recovers to −50 mV for 4 s to excite the tail current of the hERG channel. The data were collected repeatedly every 10 s to observe the effect of the drug on the hERG tail current. −50 mV stimulation at 0.5 s was used as the leakage current detection. The test data is collected by Qpatch and stored in the connected service station.
First, the current after the effect of each drug concentration and the blank control current are normalized 0, and then the inhibition rate corresponding to each drug concentration is calculated.
Calculate the mean and standard error for each concentration and calculate the semi-inhibitory concentration for each compound using the following Formula:
Y=Bottom+(Top−Bottom)/(1+10^((LogIC50−X)*HillSlope)) The above Formula was used to fit the dose-dependent effect nonlinearly, where C represents the test substance concentration, IC50 is the semi-inhibitory concentration, and h represents the Hill coefficient. Curve fitting and IC50 calculations were performed using Graphpad software.

Data set [1] is described as follows: In vivo pharmacokinetic evaluation in mice (IV and PO). To be noted: CD-1 mice; for AUC / clearance / half-life / Vd / Cmax: mouse, plasma; for Vd: read-out: Vss. As for the experimental part:
CD-1 mice, after fasting overnight (free drinking), are divided into tail vein (IV) and gavage administration (PO) groups. The tail vein administration group collected 0.1 mL of blood from the orbital venous plexus before administration and 5 minutes, 15 minutes, 0.5 hours, 1 hour, 2 hours, 4 hours, 8 hours, 12 hours, and 24 hours after administration, and sample centrifugation at 4° C. for 5 minutes, and stored at −70° C. for testing. […] The plasma parent drug concentration was determined by LC-MS/MS.

The target in the next data set is T1, NLRP3 (Homo sapiens, UniProt Q96P20).
T1 construct: endogenous in cells; host or cells: THP-1 cells (IFN-γ differentiated, LPS primed, ATP stimulated)
In words: IL-1β (interleukin-1β) secretion in IFN-γ-differentiated, LPS/ATP-stimulated THP-1 cells (half inhibition rate of NLRP3). Type of data set: cell-based. To be noted: IFN-γ 25 ng/mL, LPS 50 ng/mL, ATP 5 mM. As for the experimental part: Remove THP-1 cells from liquid nitrogen and place in a 37° C. water bath until ice melt. Add the cells to 5 mL of warm cell culture medium and centrifuge at 1,000 rpm for 5 min. Discard the supernatant and resuspend and culture in a new cell culture medium.
THP-1 cells are cultured in the culture medium and passaged every 2-3 days.
2.1.1 Add 100 μL of cell suspension per well to the cell plate and incubate the cell plate in a 37° C., 5% CO2 incubator for 24 hours.
2.2.1 Discard the supernatant of IFN-γ differentiation after differentiation treatment. Add 100 μL of serum-free medium containing LPS (final concentration of 50 ng/mL) to the cell plate. The cell plates were incubated in a 37° C., 5% CO2 incubator for 4 h.
Place the cell plate in an incubator at 37° C. and 5% CO2 for 1 hour.
2.2.3 Add 20 μL of 6×ATP per well according to the plate map (final concentration 5 mM) and incubate the cell plate in a 37° C., 5% CO2 incubator for 1 h. Collect the supernatant (60 μL) and store at −20° C.
The capture antibody mAb Mt175 is diluted to 2 μg/mL with PBS (1:250) and added to the cell plate at 15 μL per well. Keep the plate overnight at 4° C.
2.4.1 Discard the coated antibody and wash 4 times with PBST.
2.4.3 Discard the blocking buffer and wash 4 times with PBST.
2.4.4 Add 25 μL of 2.2.3 collected supernatant sample per well and incubate for 2 h at room temperature.
2.4.5 Discard the samples and wash 4 times with PBST.
2.4.6 Add mAb7P10-biotin (concentration 0.5 ug/mL) to blocking buffer, add 15 μL per well to the cell plate, and incubate for 1 hour at room temperature.
2.4.7 Discard the antibody and wash 4 times with PBST.
2.4.8 Streptavidin-HRP was diluted 1:1000 in blocking buffer, 15 μL per well was added to the cell plate, and incubated for 1 hour at room temperature.
2.4.9 Discard streptavidin-HRP and wash 4 times with PBST.
2.4.10 Add 25 μL of HRP substrate (Surmodics-TMBW-0100-01) per well and incubate the cell plate until a blue product appears.
2.4.11 Add 25 μL of stop solution (Surmodics-LSTP-0100-01) per well, and the blue product turns yellow.
2.4.12 Read the cell plate at 450 nm with a microplate reader.

T1 sequence (Q96P20 whole entry): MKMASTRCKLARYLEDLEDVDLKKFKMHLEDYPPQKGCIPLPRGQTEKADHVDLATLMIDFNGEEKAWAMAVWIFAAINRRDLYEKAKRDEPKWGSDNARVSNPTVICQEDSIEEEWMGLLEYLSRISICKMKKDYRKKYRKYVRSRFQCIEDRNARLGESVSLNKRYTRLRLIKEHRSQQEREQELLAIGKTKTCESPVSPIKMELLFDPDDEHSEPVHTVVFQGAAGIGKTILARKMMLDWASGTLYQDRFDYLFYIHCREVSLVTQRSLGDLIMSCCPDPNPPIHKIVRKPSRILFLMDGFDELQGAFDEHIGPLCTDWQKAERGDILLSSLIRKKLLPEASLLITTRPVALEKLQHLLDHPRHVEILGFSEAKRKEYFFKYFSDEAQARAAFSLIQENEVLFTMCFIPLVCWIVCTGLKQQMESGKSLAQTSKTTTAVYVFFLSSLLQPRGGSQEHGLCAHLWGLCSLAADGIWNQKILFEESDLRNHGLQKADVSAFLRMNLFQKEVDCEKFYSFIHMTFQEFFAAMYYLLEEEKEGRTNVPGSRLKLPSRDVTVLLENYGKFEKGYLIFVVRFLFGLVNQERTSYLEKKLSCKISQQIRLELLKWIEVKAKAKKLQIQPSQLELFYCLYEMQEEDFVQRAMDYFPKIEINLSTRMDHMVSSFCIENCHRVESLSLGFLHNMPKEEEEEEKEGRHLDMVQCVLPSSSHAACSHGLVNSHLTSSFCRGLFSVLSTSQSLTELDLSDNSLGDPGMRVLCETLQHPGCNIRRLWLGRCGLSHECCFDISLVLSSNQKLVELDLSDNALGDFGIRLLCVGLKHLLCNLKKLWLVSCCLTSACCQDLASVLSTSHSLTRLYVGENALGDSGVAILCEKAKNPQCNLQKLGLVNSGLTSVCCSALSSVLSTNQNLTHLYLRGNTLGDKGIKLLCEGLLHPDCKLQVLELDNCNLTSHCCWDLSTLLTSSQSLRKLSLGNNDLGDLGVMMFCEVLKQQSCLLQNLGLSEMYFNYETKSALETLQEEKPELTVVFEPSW
hERG potassium channel, sequence (Q12809 whole entry): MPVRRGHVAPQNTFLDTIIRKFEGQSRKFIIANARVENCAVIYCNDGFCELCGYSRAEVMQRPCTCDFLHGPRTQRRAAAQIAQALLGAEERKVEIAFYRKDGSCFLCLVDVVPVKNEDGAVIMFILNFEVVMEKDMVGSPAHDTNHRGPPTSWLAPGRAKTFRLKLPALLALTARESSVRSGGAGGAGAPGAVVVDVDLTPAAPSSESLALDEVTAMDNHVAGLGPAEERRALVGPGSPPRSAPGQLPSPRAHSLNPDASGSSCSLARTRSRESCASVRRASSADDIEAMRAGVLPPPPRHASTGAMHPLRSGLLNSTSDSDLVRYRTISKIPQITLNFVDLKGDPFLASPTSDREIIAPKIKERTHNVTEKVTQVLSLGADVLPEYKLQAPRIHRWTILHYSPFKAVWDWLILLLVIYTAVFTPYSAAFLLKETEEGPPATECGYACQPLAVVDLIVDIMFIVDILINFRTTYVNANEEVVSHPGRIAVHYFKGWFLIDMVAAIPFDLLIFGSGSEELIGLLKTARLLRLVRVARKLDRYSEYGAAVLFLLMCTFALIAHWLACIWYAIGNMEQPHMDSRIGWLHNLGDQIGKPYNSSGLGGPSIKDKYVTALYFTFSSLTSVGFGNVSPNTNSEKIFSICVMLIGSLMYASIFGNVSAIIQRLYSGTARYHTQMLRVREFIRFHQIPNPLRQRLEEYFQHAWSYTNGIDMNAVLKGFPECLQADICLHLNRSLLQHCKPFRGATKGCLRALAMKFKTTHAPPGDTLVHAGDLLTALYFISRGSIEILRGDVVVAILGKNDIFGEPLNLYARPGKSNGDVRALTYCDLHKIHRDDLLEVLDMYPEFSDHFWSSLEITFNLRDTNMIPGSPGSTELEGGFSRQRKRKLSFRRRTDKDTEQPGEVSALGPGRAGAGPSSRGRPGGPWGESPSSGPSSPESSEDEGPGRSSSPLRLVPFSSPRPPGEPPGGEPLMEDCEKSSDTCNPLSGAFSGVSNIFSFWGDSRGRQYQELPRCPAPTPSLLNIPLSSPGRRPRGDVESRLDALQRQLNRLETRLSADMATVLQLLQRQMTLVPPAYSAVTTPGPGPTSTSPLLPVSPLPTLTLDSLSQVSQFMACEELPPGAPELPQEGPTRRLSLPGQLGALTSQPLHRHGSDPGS

As for `Cc1nc(N[C@@H]2CCCN(CCO)C2)nnc1-c1ccc(C(F)(F)F)cc1O` [Embodiment 44, (R)-2-(3-((1-(2-hydroxyethyl)piperidin-3-yl)amino)-5-methyl-1,2,4-triazin-6-yl)-5-(trifluoromethyl)phenol], the IC50 at hERG potassium channel was over 30 µM. In data set [1] (PO, 20 mg/kg), this compound gave an F of 95.3%, an AUC of 18800 ng·h/mL, a Cmax of 4530 ng/mL and a half-life of 217 min. Besides, in data set [1] (IV, 3 mg/kg), the AUC amounted to 2950 ng·h/mL, the clearance was 16.8 mL/min/kg, the half-life is 241 min and the Vd worked out at 4.35 L/kg. On NLRP3, this compound came in with an IC50 of 0.4 nM.

Consider `Oc1cc(C(F)(F)F)ccc1-c1nnc(N[C@@H]2CCCC[C@H]2O)c2ncccc12` [Embodiment 70, 2-(8-(((1R,2R)-2-hydroxycyclohexyl)amino)pyrido[2,3-d]pyridazin-5-yl)-5-(trifluoromethyl)phenol], for which the results for the IC50 against hERG potassium channel and against NLRP3 were over 30 µM and 5.3 nM, respectively.

For `C[C@]1(O)C[C@@H](Nc2nnc(-c3ccc(C(F)(F)F)cc3O)c3cnccc23)C1` [Embodiment 78], the figures for the IC50 on hERG potassium channel and against NLRP3 were over 30 µM and 2.8 nM, respectively.

For the compound `CC(CO)N1CCC[C@@H](Nc2nnc(-c3ccc(C(F)(F)F)cc3O)c3ccncc23)C1` (stereo partly drawn) [Embodiment 126], the IC50 at hERG potassium channel was over 30 µM; on NLRP3, 3.9 nM.

Consider `CC(CO)N1CCC[C@@H](Nc2nnc(-c3ccc(C(F)(F)F)cc3O)c3cnccc23)C1` (stereo partly drawn) [Embodiment 127], for which the IC50 against hERG potassium channel was over 30 µM; against NLRP3 it was 3.5 nM.

Regarding `CC(CO)N1CCC[C@@H](Nc2nnc(-c3ccc(C(F)(F)F)cc3O)c3ccoc23)C1` (stereo partly drawn) [Embodiment 130], the IC50 against hERG potassium channel was over 30 µM; at NLRP3 it was 1.9 nM.

For `CC(CO)N1CCC[C@@H](Nc2nnc(-c3ccc(C(F)(F)F)cc3O)c3occc23)C1` (stereo partly drawn) [Embodiment 131], the values for the IC50 at hERG potassium channel and on NLRP3 were over 30 µM and 7.3 nM, respectively.

The compound `Cc1nc(N[C@@H]2CCCN(C(C)(C)CO)C2)nnc1-c1ccc(C(F)(F)F)cc1O` [Embodiment 132] had an IC50 at hERG potassium channel of over 30 µM. In data set [1] (PO, 20 mg/kg), this compound showed an F of 88.5%, an AUC of 18600 ng·h/mL, a Cmax of 3070 ng/mL and a half-life of 152 min. Further, in data set [1] (IV, 3 mg/kg), the AUC came out at 3160 ng·h/mL, the clearance is 15.8 mL/min/kg, the half-life was 169 min and the Vd was 3.56 L/kg. At NLRP3, the IC50 came to 4.1 nM.

As to `Cc1nc(N[C@@H]2CCCN(CC(C)(C)O)C2)nnc1-c1ccc(C(F)(F)F)cc1O` [Embodiment 133], the half-inhibitory concentration (IC50) at hERG potassium channel was over 30 µM; on NLRP3, 6.6 nM.

Regarding `Oc1cc(C(F)(F)F)ccc1-c1nnc(N[C@@H]2CCCC[C@H]2O)c2c(F)cccc12` [Embodiment 135], the results for the IC50 against hERG potassium channel and at NLRP3 were over 30 µM and 5.1 nM, respectively.

As for `Oc1cc(C(F)(F)F)ccc1-c1nnc(N[C@@H]2CCCC[C@H]2O)c2cc(F)ccc12` [Embodiment 136], at hERG potassium channel, the IC50 is over 30 µM. In data set [1] (PO, 20 mg/kg), this compound had an F of 93.8%, an AUC of 20300 ng·h/mL, a Cmax of 6520 ng/mL and a half-life of 340 min. In data set [1] (IV, 3 mg/kg), the AUC came out at 3250 ng·h/mL, the clearance is 15.1 mL/min/kg, the half-life is 364 min and the Vd is 2.35 L/kg. The same compound showed an IC50 at NLRP3 of 4.4 nM.

Regarding `Oc1cc(C(F)(F)F)ccc1-c1nnc(N[C@@H]2CCCC[C@H]2O)c2ccc(F)cc12` [Embodiment 137], the IC50 is over 30 µM against hERG potassium channel and 2 nM at NLRP3.

Turning to `C[C@]1(O)C[C@@H](Nc2nnc(-c3ccc(C(F)(F)F)cc3O)c3ccc(F)cc23)C1` [Embodiment 139], the IC50 against hERG potassium channel was over 30 µM; against NLRP3, 1.9 nM.

Compound `Cc1nc(N[C@@H]2CCCN([C@@H](C)CO)C2)nnc1-c1ccc(C(F)(F)F)cc1O` [Embodiment 147] returned an IC50 against hERG potassium channel of over 30 µM. Also, in data set [1] (PO, 20 mg/kg), the F stood at 78.7%, the AUC is 17200 ng·h/mL, the Cmax came to 5710 ng/mL and the half-life is 166 min. In data set [1] (IV, 3 mg/kg), the AUC stood at 3290 ng·h/mL, the clearance was 15.2 mL/min/kg, the half-life is 197 min and the Vd stood at 3.39 L/kg. At NLRP3, the IC50 turned out to be 9 nM.

As to `Cc1nc(N[C@@H]2CCCN([C@H](C)CO)C2)nnc1-c1ccc(C(F)(F)F)cc1O` [Embodiment 148], on hERG potassium channel, the IC50 was over 30 µM. In data set [1] (PO, 20 mg/kg), the F turned out to be 95.2%, the AUC is 30100 ng·h/mL, the concentration peaked (Cmax) at 7730 ng/mL and the half-life is 221 min. For the same compound, in data set [1] (IV, 3 mg/kg), the AUC came to 4750 ng·h/mL, the clearance was 10.5 mL/min/kg, the half-life was 250 min and the Vd was 3 L/kg. Also, the IC50 at NLRP3 is 14.4 nM.

With `Cc1nc(N[C@@H]2CCCN(C[C@@H](C)O)C2)nnc1-c1ccc(C(F)(F)F)cc1O` [Embodiment 150], the figures for the IC50 against hERG potassium channel and at NLRP3 were over 30 µM and 9.9 nM, respectively.

For the compound `Cc1nc(N[C@@H]2CCCN(CCO)C2)nnc1-c1ccc(Cl)cc1O` [Embodiment 152], the IC50 against hERG potassium channel is over 30 µM; against NLRP3, 10.4 nM.

As for `OCCN1CCC[C@@H](Nc2nnc(-c3ccc(Cl)cc3O)c3ccc(F)cc23)C1` [Embodiment 153], the 50% inhibitory concentration (IC50) on hERG potassium channel is over 30 µM; against NLRP3 it was 2.4 nM.

As to `OCCN1CCC[C@@H](Nc2nnc(-c3ccc(Cl)cc3O)c3ccccc23)C1` [Embodiment 155], the IC50 is over 30 µM at hERG potassium channel and 2.5 nM against NLRP3.

Broadly, the IC50 is the concentration needed to halve the response being measured. As a reminder, the AUC is the area under the concentration-time curve, a measure of exposure. Broadly, the half-life is the time needed for the level to fall by half in the phase considered. Low values mean fast loss, high ones slow loss. Broadly, the Cmax is the maximum level reached in the sampled fluid or tissue.
